Columns and labels:
[1] = test system: cellular mRNAs in rat liver; experiment: AFLP-based Transcript Imaging of liver mRNAs of phenobarbital-treated rats; format: in vivo; settings: for Fold Change AFLP: 13 weeks phenobarbital 200 mg/kg oral gavage
Method: Rats were treated with phenobarbital for thirteen weeks or in a separate experiment, for 5 days. Liver mRNAs were extracted and probed for those mRNAs specifically altered by phenobarbital treatment by comparing with mRNA expression in untreated rats. The relative abundance of cellular mRNAs in rat liver was determined using PE GenScope's AFLP (Amplified Fragment Length Polymorphism)-based Transcript Imaging technology. The mRNA is converted into double-stranded cDNA, which is then cut with restriction enzymes. The resulting restriction fragments are tagged with specific adapters of known sequences, which allows for subsequent amplification of the fragments under highly stringent conditions. Similar technology has been used in plants (Money. T. et al., Nucleic Acids Res. 24:2616-2617 (1996), incorporated by reference in its entirety).

rat liver mRNA [2] = experiment: Validation of AFLP biomarkers by rt-PCR (Taqman) in liver of phenobarbital-treated rats; format: in vivo; settings: for Fold Change 2-week: 2 weeks phenobarbital; for Fold Change 13-week: 13 weeks phenobarbital 200 mg/kg oral gavage
Method: After AFLP experiments were conducted, and results analyzed, the effects of phenobarbital on the expression of several biomarkers were validated. RNA was extracted from the same liver samples used in the AFLP study, in addition to liver samples from rats treated with phenobarbital for 2-weeks, followed by reverse transcription reactions to generate cDNA, followed by PCR, using Taqman technology. The genes analyzed for phenobarbital-induced alterations, and the corresponding AFLP sequence numbers are listed in Table 5, and a graph and a chart of the actual results are in Table 6 and FIG. 1.
Eleven of the 17 (65%) genes analyzed were also determined to be differentially expressed using rt-PCR. However, this is based on comparisons at the same timepoint (13 weeks). When the rt-PCR analyses performed on the 2 week samples are considered, another marker (S-033) is found to be differentially expressed. Theoretically, differences in sensitivity and or specificity between the two techniques could be accounted for these minor discrepancies. However, S-033 is an example of how AFLP has identified biomarkers which are optimal for carcinogen detection at timepoints other than 13 weeks.

rat liver mRNA [3] = experiment: RT-PCR of mRNAs for three phenobarbital-induced genes; settings: oral gavage 200 mg/kg, 88 days or 5 days
Method: Specifically, rats were treated by oral gavage for 88 days in the 13 week experiment, or for 5 days with 200 mg/kg phenobarbital or control vehicle.

[4] = SEQ NO. 4 (Rat aldehyde dehydrogenase) mRNA
[5] = SEQ NO. 10 (Rat vitamin D-binding protein) mRNA
[6] = SEQ NO. 25 (Rat cytochrome B) mRNA
[7] = SEQ NO. 34 (Rat liver catalase) mRNA
[8] = SEQ NO. 38 (Rat alpha-2u globulin) mRNA
[9] = SEQ NO. 40 (Rat NADP-dep.isocitrate dehydrogenase) mRNA
[10] = SEQ NO. 42 (Mouse JAK1 (protein tyrosine kinase)) mRNA
[11] = SEQ NO. 46 (Rat cathepsin B) mRNA
[12] = SEQ NO. 52 ((s)-2-hydroxy acid oxidase) mRNA
[13] = SEQ NO. 92 (Rat nicotinic receptor alpha 7 subunit) mRNA
[14] = SEQ NO. 114 (Rat delta-aminolevulinate synthase) mRNA
[15] = SEQ NO. 116 (Estrogen sulfotransferase) mRNA
[16] = SEQ NO. 129 (Glutathione S-transferase) mRNA
[17] = SEQ NO. 230 (Rat carboxylesterase) mRNA

Structure (SMILES): CCC1(c2ccccc2)C(=O)NC(=O)NC1=O [phenobarbital]
- Down-regulation of the sequences of Table 3 (SEQ NO 419-457) ([1]; 5 weeks of treatment): at least 1.7 fold
- Up-regulation of the sequences of Table 4 (SEQ NO 458-489) ([1]; 5 weeks of treatment): at least 1.7 fold
- Down-regulation of the sequences of Table 1 (SEQ NO 275-318) ([1]; 13 weeks of treatment): at least 1.7 fold
- Up-regulation of the sequences of Table 2 (SEQ NO 319-418) ([1]; 13 weeks of treatment): at least 1.7 fold
- Fold Change AFLP ([1]; SEQ NO. 3 (Rat P-450) mRNA): 2.3 fold
- Fold Change AFLP [1, 4]: 8.2 fold
- Fold Change AFLP ([1]; SEQ NO. 6 (Rat UDPGT1.1) mRNA): 4.6 fold
- Fold Change AFLP [1, 5]: 1.7 fold
- Fold Change AFLP [1, 6]: 4.2 fold
- Fold Change AFLP [1, 7]: 16 fold
- Fold Change AFLP [1, 8]: 0.04 fold
- Fold Change AFLP [1, 9]: 2.5 fold
- Fold Change AFLP [1, 10]: 1.9 fold
- Fold Change AFLP [1, 11]: 2.3 fold
- Fold Change AFLP [1, 12]: 0.3 fold
- Fold Change AFLP [1, 13]: 6.3 fold
- Fold Change AFLP [1, 14]: 3.8 fold
- Fold Change AFLP [1, 15]: 0.32 fold
- Fold Change AFLP [1, 16]: 4 fold
- Fold Change AFLP ([1]; SEQ NO. 179 (Rat UDPGT) mRNA): 10.5 fold
- Fold Change AFLP [1, 17]: 1.3 fold
- Fold Change 2-week (rat liver mRNA [2]; SEQ NO. 3 (Rat P-450) mRNA): 1.34 fold
- Fold Change 13-week (rat liver mRNA [2]; SEQ NO. 3 (Rat P-450) mRNA): 1.85 fold
- Fold Change 2-week (rat liver mRNA [2]; [4]): 16.36 fold
- Fold Change 13-week (rat liver mRNA [2]; [4]): 12.88 fold
- Fold Change 2-week (rat liver mRNA [2]; SEQ NO. 6 (Rat UDPGT1.1) mRNA): 0.93 fold
- Fold Change 13-week (rat liver mRNA [2]; SEQ NO. 6 (Rat UDPGT1.1) mRNA): 1.5 fold
- Fold Change 2-week (rat liver mRNA [2]; [5]): 0.66 fold
- Fold Change 13-week (rat liver mRNA [2]; [5]): 0.79 fold
- Fold Change 2-week (rat liver mRNA [2]; [6]): 1.85 fold
- Fold Change 13-week (rat liver mRNA [2]; [6]): 0.75 fold
- Fold Change 2-week (rat liver mRNA [2]; [7]): 0.79 fold
- Fold Change 13-week (rat liver mRNA [2]; [7]): 0.45 fold
- Fold Change 2-week (rat liver mRNA [2]; [8]): 0.35 fold
- Fold Change 13-week (rat liver mRNA [2]; [8]): 0.03 fold
- Fold Change 2-week (rat liver mRNA [2]; [9]): 0.88 fold
- Fold Change 13-week (rat liver mRNA [2]; [9]): 1.14 fold
- Fold Change 2-week (rat liver mRNA [2]; [10]): 0.8 fold
- Fold Change 13-week (rat liver mRNA [2]; [10]): 0.83 fold
- Fold Change 2-week (rat liver mRNA [2]; [11]): 0.87 fold
- Fold Change 13-week (rat liver mRNA [2]; [11]): 1.41 fold
- Fold Change 2-week (rat liver mRNA [2]; [12]): 0.31 fold
- Fold Change 13-week (rat liver mRNA [2]; [12]): 0.09 fold
- Fold Change 2-week (rat liver mRNA [2]; [13]): 0.45 fold
- Fold Change 13-week (rat liver mRNA [2]; [13]): 0.72 fold
- Fold Change 2-week (rat liver mRNA [2]; [14]): 1.22 fold
- Fold Change 13-week (rat liver mRNA [2]; [14]): 4.03 fold
- Fold Change 2-week (rat liver mRNA [2]; [15]): 0.81 fold
- Fold Change 13-week (rat liver mRNA [2]; [15]): 0.15 fold
- Fold Change 2-week (rat liver mRNA [2]; [16]): 2.52 fold
- Fold Change 13-week (rat liver mRNA [2]; [16]): 4.03 fold
- Fold Change 2-week (rat liver mRNA [2]; SEQ NO. 179 (Rat UDPGT) mRNA): 14.11 fold
- Fold Change 13-week (rat liver mRNA [2]; SEQ NO. 179 (Rat UDPGT) mRNA): 9.05 fold
- Fold Change 2-week (rat liver mRNA [2]; [17]): 4.24 fold
- Fold Change 13-week (rat liver mRNA [2]; [17]): 5.74 fold
- Average expression level of P450 2B1 mRNA as compared to control rats (rat liver mRNA [3]): substantial induction

Source: patent publication US6924099B1, “Biomarkers and assays for carcinogenesis” (G.D. Searle & Co., priority 1999, dated 2005)
